Legend:
[1] = test system: arylhydrocarbon receptor (AHR); assay: Microarray gene analysis on spinal cord tissue RNA after intraperitoneal dosing; format: in vivo, rats
Experimental: Based on available dosing data, rats were dosed with 1, 5, 10, 15 or 30 mg/kg ciclopirox (intraperiotoneal; 3 animals per concentration). Spinal cord, liver and skeletal muscle tissue was harvested 6-hours after drug delivery. Real-time rt-PCR was performed on RNA extracted from tissues to examine the expression of p21waf1/cip1, arginase-1, and VEGF in order to determine what might be the most efficacious dose.
Microarray gene analysis was also performed on spinal cord tissue RNA to determine gene expression changes that correlate with treatment and dose in an unbiased manner.

[2] = test system: contusion injury at the level of T-8; assay: Spinal cord contusion injury, single injection after injury; format: in vivo, rats
[3] = test system: mouse or human p21 promoter; assay: p21-luciferase reporter screen in stably transfected HT22 cells; format: cell-based; settings: HT22 lines stably expressing p21-luciferase; positive control
Experimental: To identify novel activators of p21, fragments of the mouse or human p21 promoter were subcloned into the pGL3 basic promoter-reporter construct (see promoter sequence information). The resultant p21-luciferase reporter plasmids were each then stably transfected into a mouse hippocampal cell line, HT22. […] Drugs were added to cells stably expressing p21-luciferase in a 96 well format. The HDAC inhibitor trichostatin A was used as a positive control. After 12 hours of drug treatment, the cells were lysed and luciferase activity was measured using a desktop luminometer. Cell viability was monitored in parallel, so that agents that induce toxicity can quickly be eliminated. Secondary screens including real time PCR or Western blots of p21 were monitored in primary neurons.

AHR gene expression change in spinal cord (microarray) ([1]; rats, 1, 5, 10, 15 or 30 mg/kg intraperitoneal, tissue harvested 6 hours after drug delivery)	blood brain barrier penetration ([1]; rats, intraperitoneal, inferred from spinal cord gene expression changes)	SMILES	induction of transcription in the spinal cord ([1]; rats, intraperitoneal, in vivo)	protection (lesion volume) ([2]; single 30 mg/kg intraperitoneal injection 30 minutes after contusion injury at T-8)	effect on behavior (functional improvement) ([2]; single injection after injury)	p21-luciferase response [3]
dose-dependent ciclopirox-regulated gene	could penetrate the blood brain barrier	Cc1cc(C2CCCCC2)n(O)c(=O)c1 [ciclopirox]	could induce transcription in the spinal cord	significant protection (reduced lesion volume)	little functional improvement	–
–	–	CC(/C=C/C(=O)NO)=C\[C@@H](C)C(=O)c1ccc(N(C)C)cc1 [trichostatin A]	–	–	–	predicted increases in p21-luciferase

— patent US9029322B2, “Compounds for enhancing p21 expression and methods of use thereof” (Cornell University, priority 2007, dated 2015)
